IC50 data for 55 compounds are collected here from patent publication US10774068B2, “Composition and methods for inhibiting mammalian sterile 20-like kinase 1” (The Scripps Research Institute, priority 2015, dated 2020).

The target of one assay is MST1 (Homo sapiens (Human), UniProt Q13043). Put plainly: MST1 biochemical LanthaScreen Eu Kinase Binding Assay. Here is the method:
(§1) MST1 and MST2 biochemical LanthaScreen Eu Kinase Binding Assay was based on the binding and displacement of kinase tracer to the kinase of interest. Compounds in 1000×DMSO stock solution was dispensed using automated dispensing system (Labcyte) to 384 well Corning Microplate at 15 nL, 5 uL of Kinase buffer A was added to each well. Plates were shaken and incubated for 1 min to ensure well dissolution of compounds.

Another assay deals with MST2 (Homo sapiens (Human), UniProt Q13188). The assay can be described thus: MST2 biochemical LanthaScreen Eu Kinase Binding Assay. Here is the method:
as §1

[1] abbreviates: read-out: Kinase Binding assay-MST1 IC50.
The mark [2] stands for this setting: read-out: Kinase Binding assay-MST2 IC50.

Where two headings read alike, the source gives them in different places. Some results are limits rather than exact numbers.

MST1, sequence (Q13043 whole entry): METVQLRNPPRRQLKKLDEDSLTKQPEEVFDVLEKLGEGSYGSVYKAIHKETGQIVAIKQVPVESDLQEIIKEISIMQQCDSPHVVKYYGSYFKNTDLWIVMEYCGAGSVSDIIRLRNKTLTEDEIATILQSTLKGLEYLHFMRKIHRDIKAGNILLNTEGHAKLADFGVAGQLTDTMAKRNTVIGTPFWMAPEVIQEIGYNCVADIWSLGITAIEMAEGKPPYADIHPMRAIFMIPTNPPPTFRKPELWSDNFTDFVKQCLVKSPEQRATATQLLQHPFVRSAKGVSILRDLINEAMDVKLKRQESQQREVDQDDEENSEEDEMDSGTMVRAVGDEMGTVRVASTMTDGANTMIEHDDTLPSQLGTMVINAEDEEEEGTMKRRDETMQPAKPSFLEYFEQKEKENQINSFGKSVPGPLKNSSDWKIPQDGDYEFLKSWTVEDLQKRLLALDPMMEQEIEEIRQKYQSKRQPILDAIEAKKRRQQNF
MST2, sequence (Q13188 whole entry): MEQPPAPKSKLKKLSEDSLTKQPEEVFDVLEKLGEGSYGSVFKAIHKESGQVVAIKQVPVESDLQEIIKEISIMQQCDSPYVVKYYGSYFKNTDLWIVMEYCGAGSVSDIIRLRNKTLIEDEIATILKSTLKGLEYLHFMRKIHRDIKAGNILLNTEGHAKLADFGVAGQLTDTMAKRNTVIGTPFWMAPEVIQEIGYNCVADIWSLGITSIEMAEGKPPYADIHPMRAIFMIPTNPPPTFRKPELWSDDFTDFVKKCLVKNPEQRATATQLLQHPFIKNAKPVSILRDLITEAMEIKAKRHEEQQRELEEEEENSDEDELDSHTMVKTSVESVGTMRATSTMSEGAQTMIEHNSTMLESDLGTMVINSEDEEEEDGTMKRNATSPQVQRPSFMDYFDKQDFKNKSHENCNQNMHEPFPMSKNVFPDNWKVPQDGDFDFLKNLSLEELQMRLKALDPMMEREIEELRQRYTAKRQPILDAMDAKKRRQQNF

The term IC50 denotes the concentration at which inhibition is half-maximal. Turning to `CCOc1cc2ncc(C#N)c(Nc3ccc(OCc4ccccc4)c(Cl)c3)c2cc1NC(=O)CCCN(C)C` [Example 46], the IC50 on MST1 (setting [1]) fell in the range of 0.1 to 1 µM.

For `CCOc1cc2ncc(C#N)c(Nc3ccc(OC)c(Cl)c3)c2cc1NC(=O)CCCN(C)C` [Example 138], the IC50 on MST1 (setting [1]) lay within 1 to 10 µM.

In the case of `CCOc1cc2ncc(C#N)c(Nc3ccc(OCc4ncccc4C)cc3C#N)c2cc1NC(=O)CCCN(C)C` [Example 30], the values for the IC50 at MST1 (setting [1]) and on MST2 were < 0.1 µM and 0.1 to 1 µM, respectively.

As to `CCOc1cc2ncc(C#N)c(Nc3ccc(OCc4ncccc4C)c(Cl)c3)c2cc1NC(=O)CCCN(C)C` [Example 1], the IC50 on MST1 (setting [1]) and at MST2 (setting [2]) was < 0.1 µM throughout.

As to `CCOc1cc2ncc(C#N)c(Nc3ccc(OCc4ccc(OC)cn4)c(Cl)c3)c2cc1NC(=O)CCCN(C)C` [Example 56], the IC50 on MST1 (setting [1]) lay within 0.1 to 1 µM.

As to `CCOc1cc2ncc(C#N)c(Nc3ccc(OCc4ncccc4C)c(Cl)c3)c2cc1NC(C)=O` [Example 84, N-(4-(3-chloro-4-((3-methylpyridin-2-yl)methoxy)phenylamino)-3-cyano-7-ethoxyquinolin-6-yl)acetamide], the IC50 at MST1 (setting [1]) and at MST2 (setting [2]) was < 0.1 µM each time.

On to `CCOc1cc2ncc(C#N)c(Nc3ccc(OCc4cnc5c(c4)OCCO5)c(Cl)c3)c2cc1NC(=O)CCCN(C)C` [Example 43], for which the IC50 on MST1 (setting [1]) was 0.1 to 1 µM; on MST2, 1 to 10 µM.

For `CCOc1cc2ncc(C#N)c(Nc3cc(Cl)c(OCc4ncccc4C)cc3Cl)c2cc1NC(=O)CCCN(C)C` [Example 75], the IC50 on MST1 (setting [1]) and at MST2 (setting [2]) was < 0.1 µM in each case.

Take `CCOc1cc2ncc(C#N)c(Nc3cccc(Cl)c3)c2cc1NC(=O)CCCN(C)C` [Example 137, N-(4-(3-chlorophenylamino)-3-cyano-7-ethoxyquinolin-6-yl)-4-(dimethylamino)butanamide]: the half-maximal inhibitory concentration (IC50) on MST1 (setting [1]) lay within 1 to 10 µM.

For the compound `CCOc1cc2ncc(C#N)c(Nc3ccc(OCc4ccc(C(=O)OC)cn4)c(Cl)c3)c2cc1NC(=O)CCCN(C)C` [Example 58], the IC50 at MST1 (setting [1]) lay within 0.1 to 1 µM.

For `CCOc1cc2ncc(C#N)c(Nc3ccc(OCc4ncccc4C)cc3C(F)(F)F)c2cc1NC(=O)CCCN(C)C` [Example 29], the IC50 at MST1 and at MST2 was 0.1 to 1 µM each time.

On to `CCOc1cc2ncc(C#N)c(Nc3ccc(OCc4ccccn4)c(Cl)c3)c2cc1NC` [Example 140, 4-(3-chloro-4-(pyridin-2-ylmethoxy)phenylamino)-7-ethoxy-6-(methylamino)quinoline-3-carbonitrile], for which the IC50 fell in the range of 0.1 to 1 µM on MST1 and 1 to 10 µM on MST2.

In the case of `CCOc1cc2ncc(C#N)c(Nc3ccc(OCc4ncccc4C)cc3Cl)c2cc1NC(=O)CCCN(C)C` [Example 25, N-(4-((2-chloro-4-((3-methyl-pyridin-2-yl)methoxy)phenyl)amino)-3-cyano-7-ethoxyquinolin-6-yl)-4-(dimethylamino)butanamide], the IC50 on MST1 (setting [1]) and on MST2 (setting [2]) was < 0.1 µM each time.

Consider `CCOc1cc2ncc(C#N)c(Nc3ccc(OCc4ncccc4C)cc3Br)c2cc1NC(=O)CCCN(C)C` [Example 74], for which the IC50 on MST1 (setting [1]) and at MST2 (setting [2]) was < 0.1 µM each time.

For the compound `CCOc1cc2ncc(C#N)c(Nc3ccc(OCc4cccnc4)c(Cl)c3)c2cc1NC(=O)CCCN(C)C` [Example 49], at MST1 (setting [1]), the IC50 was 1 to 10 µM.

Turning to `CCOc1cc2ncc(C#N)c(Nc3cccc(S(C)(=O)=O)c3)c2cc1NC(C)=O` [Example 134], the IC50 on MST1 (setting [1]) was 1 to 10 µM.

As to `CCOc1cc2ncc(C#N)c(Nc3ccc(OCc4ccncc4)c(Cl)c3)c2cc1NC(=O)CCCN(C)C` [Example 50], at MST1 (setting [1]), the IC50 fell in the range of 1 to 10 µM.

`CCOc1cc2ncc(C#N)c(Nc3ccc(OC)cc3)c2cc1NC(C)=O` [Example 121]: at MST1 (setting [1]), the IC50 lay within 0.1 to 1 µM.

For `CCOc1cc2ncc(C#N)c(Nc3ccc(OCc4ccccn4)cc3)c2cc1NC(=O)CCCN(C)C` [Example 47], the IC50 at MST1 (setting [1]) is 0.1 to 1 µM.

`CCOc1cc2ncc(C#N)c(Nc3ccc(NC(C)(C)c4ccccn4)c(Cl)c3)c2cc1NC(=O)CCCN(C)C` [Example 113]: the IC50 at MST1 (setting [1]) lay within 1 to 10 µM.

As to `CCOc1cc2ncc(C#N)c(Nc3ccc(OCCn4ccc(C)n4)c(Cl)c3)c2cc1NC(=O)CCCN(C)C` [Example 64], the IC50 at MST1 (setting [1]) was 0.1 to 1 µM.

`CCOc1cc2ncc(C#N)c(Nc3ccc(OCc4cnc5cccnc5c4)c(Cl)c3)c2cc1NC(=O)CCCN(C)C` [Example 63]: the IC50 at MST1 (setting [1]) is 0.1 to 1 µM.

Regarding `CCOc1cc2ncc(C#N)c(Nc3ccc(OCc4cc(C(F)(F)F)ccn4)c(Cl)c3)c2cc1NC(=O)CCCN(C)C` [Example 55], the IC50 on MST1 (setting [1]) was 0.1 to 1 µM.

For the compound `CCOc1cc2ncc(C#N)c(Nc3ccc(OCc4cc5ncccc5o4)c(Cl)c3)c2cc1NC(=O)CCCN(C)C` [Example 71], the IC50 on MST1 (setting [1]) was in the range of 0.1 to 1 µM.

Consider `CCOc1cc2ncc(C#N)c(Nc3ccc(OCc4nc(C(C)C)no4)c(Cl)c3)c2cc1NC(=O)CCCN(C)C` [Example 70], for which the IC50 at MST1 (setting [1]) lay in the range of 0.1 to 1 µM.

As to `CCOc1cc2ncc(C#N)c(Nc3ccc(OCc4ccccn4)c(Cl)c3)c2cc1NC(=O)CCN(C)C` [Example 96], the IC50 at MST1 (setting [1]) was < 0.1 µM.

In the case of `CCOc1cc2ncc(C#N)c(Nc3ccc(OCc4cccnn4)c(Cl)c3)c2cc1NC(=O)CCCN(C)C` [Example 68], the IC50 on MST1 (setting [1]) fell in the range of 0.1 to 1 µM.

In the case of `CCOc1cc2ncc(C#N)c(Nc3ccc(OCc4ccc5c(n4)OCCC5)c(Cl)c3)c2cc1NC(=O)CCCN(C)C` [Example 59], the IC50 at MST1 (setting [1]) was in the range of 1 to 10 µM.

`CCOc1cc2ncc(C#N)c(Nc3ccc(OCc4cocn4)c(Cl)c3)c2cc1NC(=O)CCCN(C)C` [Example 69]: the IC50 at MST1 (setting [1]) was in the range of 0.1 to 1 µM.

In the case of `CCOc1cc2ncc(C#N)c(Nc3ccc(OCc4ccc(C(F)(F)F)cn4)c(Cl)c3)c2cc1NC(=O)CCCN(C)C` [Example 53], the IC50 on MST1 (setting [1]) lay in the range of 0.1 to 1 µM.

`CCOc1cc2ncc(C#N)c(Nc3ccc(NCc4ccccn4)c(Cl)c3)c2cc1NC(=O)CCCN(C)C` [Example 111, N-(4-(3-chloro-4-(pyridin-2-ylmethylamino)phenylamino)-3-cyano-7-ethoxyquinolin-6-yl)-4-(dimethylamino)butanamide]: on MST1 (setting [1]), the IC50 was in the range of 0.1 to 1 µM.

Turning to `CCOc1cc2ncc(C#N)c(Nc3ccc(OCc4ccccn4)c(Cl)c3)c2cc1NC(=O)CCCN1CCN(C)CC1` [Example 98], the IC50 on MST1 (setting [1]) is < 0.1 µM.

In the case of `CCOc1cc2ncc(C#N)c(Nc3ccc(C)cc3)c2cc1NC(C)=O` [Example 120], the IC50 at MST1 (setting [1]) was 0.1 to 1 µM.

`CCOc1cc2ncc(C#N)c(Nc3ccc(OCc4cccc(C(F)(F)F)n4)c(Cl)c3)c2cc1NC(=O)CCCN(C)C` [Example 54]: the concentration for half-maximal inhibition (IC50) on MST1 (setting [1]) lay within 0.1 to 1 µM.

In the case of `CCOc1cc2ncc(C#N)c(Nc3cccc(C)c3)c2cc1NC(C)=O` [Example 130], the IC50 on MST1 (setting [1]) lay within 1 to 10 µM.

With `CCOc1cc2ncc(C#N)c(Nc3ccc(NC(C)c4ccccc4)c(Cl)c3)c2cc1NC(=O)CCCN(C)C` (stereo not shown) [Example 114], on MST1 (setting [1]), the IC50 was in the range of 1 to 10 µM.

`CCOc1cc2ncc(C#N)c(Nc3ccc(OCCc4c(C)noc4C)c(Cl)c3)c2cc1NC(=O)CCCN(C)C` [Example 66]: the IC50 at MST1 (setting [1]) was 0.1 to 1 µM.

Consider `CCOc1cc2ncc(C#N)c(Nc3ccc(OCc4cnc(C)cn4)c(Cl)c3)c2cc1NC(=O)CCCN(C)C` [Example 60], for which the IC50 on MST1 (setting [1]) was 0.1 to 1 µM.

`CCOc1cc2ncnc(Nc3ccc(OCc4ncccc4C)cc3Cl)c2cc1NC(=O)CCCN(C)C` [Example 146, N-(4-(2-chloro-4-((3-methylpyridin-2-yl)methoxy)phenylamino)-7-ethoxyquinazolin-6-yl)-4-(dimethylamino)butanamide]: at MST1 (setting [1]), the IC50 lay in the range of 1 to 10 µM.

As to `CCOc1cc2ncc(C#N)c(Nc3ccc(OCc4ncccc4-c4ccccc4)c(Cl)c3)c2cc1NC(=O)CCCN(C)C` [Example 72], at MST1 (setting [1]), the IC50 is 0.1 to 1 µM.

Regarding `CCOc1cc2ncc(C#N)c(Nc3ccc(OCc4ccccn4)c(Cl)c3)c2cc1NC(=O)CC` [Example 101], the IC50 on MST1 (setting [1]) lay within 1 to 10 µM.

`CCOc1cc2ncc(C#N)c(Nc3ccc(NC(C)c4ccccn4)c(Cl)c3)c2cc1NC(=O)CCCN(C)C` (stereo not shown) [Example 112]: the IC50 at MST1 (setting [1]) lay within 1 to 10 µM.

Regarding `CCOc1ccc(COc2ccc(Nc3c(C#N)cnc4cc(OCC)c(NC(=O)CCCN(C)C)cc34)cc2Cl)nc1` [Example 57], the IC50 at MST1 (setting [1]) fell in the range of 0.1 to 1 µM.

For `CCOc1cc2ncc(C#N)c(Nc3ccc(C#N)cc3)c2cc1NC(C)=O` [Example 129], the IC50 on MST1 (setting [1]) is 1 to 10 µM.

For `CCOc1cc2ncc(C#N)c(Nc3ccc(Cl)cc3)c2cc1NC(C)=O` [Example 122], the IC50 on MST1 (setting [1]) fell in the range of 1 to 10 µM.

As to `CCOc1cc2ncc(C#N)c(Nc3ccc(NC(=O)c4ccccc4)c(Cl)c3)c2cc1NC(=O)CCCN(C)C` [Example 109, N-(2-chloro-4-(3-cyano-6-(4-(dimethylamino)butanamido)-7-ethoxyquinolin-4-ylamino)phenyl)benzamide], the 50% inhibitory concentration (IC50) on MST1 (setting [1]) lay within 0.1 to 1 µM.

For the compound `CCOc1cc2ncc(C#N)c(Nc3ccc(OCCCn4cncn4)c(Cl)c3)c2cc1NC(=O)CCCN(C)C` [Example 61], the IC50 at MST1 (setting [1]) lay within 1 to 10 µM.

As to `CCOc1cc2ncc(C#N)c(Nc3ccc(OCc4ccccn4)c(C)c3)c2cc1NC(=O)CCCN(C)C` [Example 48], the IC50 at MST1 (setting [1]) was 0.1 to 1 µM.

Consider `CCOc1cc2ncc(C#N)c(Nc3ccccc3)c2cc1NC(C)=O` [Example 115, N-(3-cyano-7-ethoxy-4-(phenylamino)quinolin-6-yl)acetamide], for which the 50% inhibitory concentration (IC50) on MST1 (setting [1]) is 1 to 10 µM.

For `CCOc1cc2ncc(C#N)c(Nc3ccc(OCc4cccnc4)cc3)c2cc1NC(=O)CCCN(C)C` [Example 51], the IC50 at MST1 (setting [1]) was in the range of 1 to 10 µM.

As to `CCOc1cc2ncc(C#N)c(N(C)c3ccccc3)c2cc1NC(C)=O` [Example 116], the IC50 on MST1 (setting [1]) was in the range of 1 to 10 µM.

Take `CCOc1cc2ncc(C#N)c(Nc3cccc(OC)c3)c2cc1NC(C)=O` [Example 131]: the IC50 on MST1 (setting [1]) is 0.1 to 1 µM.

Regarding `CCOc1cc2ncc(C#N)c(Nc3ccccc3F)c2cc1NC(C)=O` [Example 118], at MST1 (setting [1]), the IC50 was 0.1 to 1 µM.

As for `CCOc1cc2ncc(C#N)c(Nc3ccc(OCc4cc(-c5ccc(C)cc5)on4)c(Cl)c3)c2cc1NC(=O)CCCN(C)C` [Example 73], on MST1 (setting [1]), the IC50 was in the range of 0.1 to 1 µM.

For `CCOc1cc2ncc(C#N)c(Nc3ccc(OC)c(Cl)c3)c2cc1NC(C)=O` [Example 136], the IC50 on MST1 (setting [1]) lay in the range of 0.1 to 1 µM.
